Measured values as given in patent US20230091336A1, “CANNABINOID COMPOSITIONS” (priority 2020, published 2023).

Columns and labels:
[1] = system: thapsigargin (Tg)-induced Ca^2+ entry (SOCE) in Jurkat, U937, Luva, RBL-2H3, HL-60 and HEK-293 cells; test: Thapsigargin-induced SOCE Fura-2 bioassay in various cell types (FIG. 1); format: cell-based; conditions: 1 μM, positive control, all tested cell types
Protocol: A Fura-2 calcium flux assay was used to determine cytoplasmic Ca^2+ levels. Briefly, cells were preloaded with Fura-2 AM, and fluorescence intensity in cells intensity was measured over time as a ratio of detected 510 nm fluorescent light emission intensity when excited by UV light at 340 nm and 380 nm wavelengths (f340/f380 ratio). Gadolinium (Gd^3+) is known to block SOCE at a concentration of 1 μM and was used at 1 μM as a positive control in these experiments (gray line).

[2] = system: UUO mice; conditions: background statement; cited from earlier work
[3] = system: kidney cell-line model; conditions: background statement; cited from earlier work
[4] = system: SOCE in HEK-293 human embryonic kidney cells; test: SOCE Fura-2 bioassay in HEK293 cells; format: cell-based; conditions: Homo sapiens, HEK293, read-out: IC50 SOCE, purified cannabinoids, HEK-293; Table 5
[5] = system: SOCE in Luva human mast cells; test: SOCE Fura-2 bioassay in Luva cells; conditions: Homo sapiens, Mast cell, read-out: IC50 SOCE, purified cannabinoids, Luva; Table 5
Protocol: (§1) Briefly, SOCE inhibition experiments were performed as described in Example 8, using each of the hemp extracts listed below and in Tables 6A and 6B at six concentrations each in each of the five cell types listed above to obtain dose response curves, as shown in FIGS. 11A-11SS. […] All data are averages of three independent runs±SEM. […] Hemp extracts used in FIGS. 11A-11SS are: Sour Space Candy (SSC), Hawaiian Haze (HH), Special Sauce (SS), Suver Haze (SH), White CBG (WCBG), Elektra (ELEK), Cherry Wine (CW), Lifter (LIF), Grape Soda (GS).

[6] = system: SOCE in THP-1 human monocytes; test: SOCE Fura-2 bioassay in THP-1 cells; conditions: for IC50: Homo sapiens, THP-1, read-out: IC50 SOCE, purified cannabinoids; for combinatory effect on SOCE inhibition when paired with CBGA (isobolographic analysis): THP-1, pairs expected to inhibit 50%, FIGS. 10U-10Y
[7] = system: SOCE in U937 human monocytes; test: SOCE Fura-2 bioassay in U937 cells; conditions: Homo sapiens, U-937, read-out: IC50 SOCE, purified cannabinoids, U937; Table 5
Protocol: as §1

[8] = system: SOCE in RBL-2H3 rat mast cells; test: SOCE Fura-2 bioassay in RBL-2H3 cells; conditions: Rattus norvegicus, RBL-2H3, read-out: IC50 SOCE, purified cannabinoids, RBL-2H3; Table 5
Protocol: as §1

[9] = system: SOCE in Jurkat T cells; test: SOCE Fura-2 bioassay in Jurkat cells; format: cell-based, human; conditions: for IC50: Homo sapiens, read-out: IC50 SOCE, purified cannabinoids, Jurkat, Table 5; for combinatory effect on SOCE inhibition when paired with CBGA (isobolographic analysis): pairs expected to inhibit 50%, FIGS. 10A-10T

SMILES | effect on Tg-induced SOCE (f340/f380 ratio) [1] | progression of kidney damage and fibrosis in the UUO mouse model [2] | cell proliferation in a kidney cell-line model [3] | IC50 [4] [µM] | IC50 [5] [µM] | IC50 [6] [µM] | combinatory effect on SOCE inhibition when paired with CBGA (isobolographic analysis) [6] | IC50 [7] [µM] | IC50 [8] [µM] | IC50 [9] [µM] | combinatory effect on SOCE inhibition when paired with CBGA (isobolographic analysis) [9] | effect on SOCE Ca^2+ signals, pure compounds ([9]; 10 μM, 1 μM thapsigargin, FIG. 7A, 7C)
[Cl][Gd]([Cl])[Cl] [Gd^3+, Gadolinium Chloride] | inhibited SOCE |  |  |  |  |  |  |  |  |  |  | 
c1ccc2c(c1)CCC[C@H]2Nc1nc2ccccc2[nH]1 [NS8593] |  | ameliorates the progression of kidney damage and fibrosis | inhibit cell proliferation |  |  |  |  |  |  |  |  | 
CCCCCc1cc2c(c(O)c1C(=O)O)-c1cc(C)ccc1C(C)(C)O2 [CBNA, 1-hydroxy-6,6,9-trimethyl-3-pentyl-6H-benzo[c]chromene-2-carboxylic acid] |  |  |  | 29.5 | > 50 | 7.25 | sub-additive | 19.2 | 22.5 | 0.99 | Simple additive | 
CCCCCc1cc2c(c(O)c1C(=O)O)[C@@H]1C=C(C)CC[C@H]1C(C)(C)O2 [THCA, (6aR, 10aR)-1-hydroxy-6,6,9-trimethyl-3-pentyl-6a,7,8,10a-tetrahydro-6H-benzo[c]chromene-2-carboxylic acid] |  |  |  | 20.7 | 0.57 | 10.4 | sub-additive | 8.1 | 17.5 | 2.23 | Simple additive | fully block the Ca^2+ signals
CCCCCc1cc(O)c2c(c1)O[C@]1(C)CC[C@@H]3C1[C@@H]2C3(C)C (stereo partly drawn) [CBL, (1aS,1a1R,3aR,8bR)-1,1,3a-trimethyl-6-pentyl-1a,1a1,2,3,3a,8b-hexahydro-1H-4-oxabenzo[f]cyclobuta[cd]inden-8-ol] |  |  |  | > 50 | > 50 | > 50 |  | > 50 | > 50 | > 50 | Simple additive | 
